The values below come from the supplement of paper PMC3493320.

This assay deals with NCI-H295R. Put plainly: IC50 (antiproliferative, ATP content). Particulars: 48 h. The method, boiled down: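 Compounds were pin-transferred at 8 final concentrations between 0.6 nM and 46 µM onto adrenocortical carcinoma cells (1500 per well, 1536-well plates) that had been cultured overnight in serum-free DMEM with ITS. Plates then stood 48 h at 37 °C, 5% CO2, and ATP was detected by CellTiter-Glo luminescence. IC50 was derived from logistic fits of normalised signal, and compounds giving no concentration response were noted as above the top dose.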
Take `Nc1ccc(S(=O)(=O)NC(=O)c2ccccc2)cc1`: the IC50 – broadly, the concentration that gives 50% inhibition – is greater than 46 µM. Turning to `O[C@@H]([C@@H]1O\C(=C/[C@H](NC(N)=N)[C@H]1NC(C)=O)C(O)=O)[C@H](O)CO`, the IC50 was greater than 46 µM. As for `O=C(C(CCC)CCC)O[C@@H]1C[C@H](CC2)[N@@+](C)(C)[C@H]2C1.[Br-]`, the IC50 is greater than 46 µM. As to `C[C@H](CCC(=O)O)[C@H]1CC[C@H]2[C@@H]3C(=O)C[C@@H]4CC(=O)CC[C@]4(C)[C@H]3CC(=O)[C@]12C`, the IC50 is greater than 46 µM. With `C[N+](C)(C)CCCCCCCCCC[N+](C)(C)C.[Br-].[Br-]`, the IC50 is greater than 46 µM. Under `O[C@H]1[C@](CC2)(C)[C@@](C)(C)[C@@H]2C1` stands greater than 46 µM.

Consider `O=C(Oc1ccccc1C(=O)O)c1ccccc1O`, for which the IC50 is greater than 46 µM.

Consider `CC(=O)[C@H]1CC[C@H]2[C@@H]3C[C@H](C)C4=CC(=O)CC[C@]4(C)[C@H]3[C@@H](O)C[C@]12C`, for which the IC50 is greater than 46 µM.

The molecule `Cc1cc(C(=O)NNCc2ccccc2)no1` displayed an IC50 greater than 46 µM. `CC(=O)Nc1c(I)c(C(=O)N[C@H]2C(O)O[C@H](CO)[C@@H](O)[C@@H]2O)c(I)c(N(C)C(C)=O)c1I` (some centres not stated): the IC50 is greater than 46 µM. Turning to `CCOc1ccc2nc(S(N)(=O)=O)sc2c1`, the half-maximal inhibitory concentration (IC50) is greater than 46 µM. `CCCCNCC(O)c1ccc(O)cc1` (configuration not stated) returned an IC50 greater than 46 µM. For `Cc1c(N(C)C)c(=O)n(-c2ccccc2)n1C`, the IC50 was greater than 46 µM. Take `CC1CCCCN1CCCOC(=O)c1ccccc1.Cl` (configuration not stated): the IC50 is greater than 46 µM. In the case of `CCN(CC)CCNC(=O)c1ccc(N)cc1`, the IC50 is greater than 46 µM. `CC(=O)[O][Al]([OH])[O]C(C)=O` gave an IC50 greater than 46 µM. With `NS(=O)(=O)c1cc(Cl)c(Cl)c(S(N)(=O)=O)c1`, the IC50 is greater than 46 µM.

`CO/N=C(\C(=O)N[C@@H]1C(=O)N2C(C(=O)[O-])=C(CSc3nc(=O)c([O-])nn3C)CS[C@H]12)c1csc(N)n1.O.O.O.[Na+].[Na+]` returned an IC50 greater than 46 µM. On to `CCNC1(c2cccs2)CCCCC1=O.Cl` (configuration not stated), for which the IC50 was greater than 46 µM.

For the molecule `CC1CC(OC(=O)C(O)c2ccccc2)CC(C)(C)N1C.Cl` (configuration not stated), the IC50 is greater than 46 µM. Turning to `CCCCCCCCCCOCC(O)CN.Cl` (configuration not stated), the IC50 is greater than 46 µM. Molecule `CCCCc1nc(Cl)c(CO)n1Cc1ccc(-c2ccccc2-c2nnn[nH]2)cc1` showed an IC50 greater than 46 µM. Molecule `CC(C)N1CCN(c2ccc(OC[C@H]3COC(Cn4cncn4)(c4ccc(Cl)cc4Cl)O3)cc2)CC1` (some centres not stated) yielded an IC50 greater than 46 µM.

Molecule `CCCCCCCCCCCCCCCCOP(=O)([O-])OCC[N+](C)(C)C` had an IC50 greater than 46 µM.

As for `COc1ccc2c3c1O[C@H]1C(=O)CC[C@H]4[C@@H](C2)N(C)CC[C@]314.COc1ccc2c3c1O[C@H]1C(=O)CC[C@H]4[C@@H](C2)N(C)CC[C@]314.O=P(O)(O)O.O=P(O)(O)O.O=P(O)(O)O`, the IC50 is greater than 46 µM. To `O=C(O)c1cc(O)nc(O)n1` belongs greater than 46 µM; to `Oc1cccc(O)c1`, greater than 46 µM. `CN(C)CCCN1c2ccccc2Sc2ccccc21.Cl` registered an IC50 greater than 46 µM. For `O=P(O)(O)C(O)(Cn1ccnc1)P(=O)(O)O`, the IC50 was greater than 46 µM.

`CCC(C(N)=O)N1CCCC1=O` (configuration not stated) showed an IC50 greater than 46 µM. In the case of `CC[N+](C)(CC)CCOC(=O)C(O)(c1ccccc1)c1ccccc1.[Br-]`, the IC50 was greater than 46 µM. As to `CC(CN1c2ccccc2Sc2ccccc21)N(C)C` (configuration not stated), the IC50 was greater than 46 µM. In the case of `O=S(=O)(O)O.Oc1ccc(C(O)CNCCCCCCNCC(O)c2ccc(O)c(O)c2)cc1O` (configuration not stated), the IC50 is greater than 46 µM. For the molecule `CC1OC(C)OC(C)O1` (configuration not stated), the IC50 is greater than 46 µM. The molecule `CCCCOC(=O)c1ccc(N)cc1` registered an IC50 greater than 46 µM. In turn, `C=CCN1CC[C@]23CCCC[C@H]2[C@H]1Cc1ccc(O)cc13` yielded an IC50 greater than 46 µM. Under `Nc1ncnc2c1ncn2[C@@H]1O[C@H](CO)[C@@H](O)[C@H]1O` stands greater than 46 µM; under `OC[C@H]1O[C@@H](Oc2ccc(O)cc2)[C@H](O)[C@@H](O)[C@@H]1O`, greater than 46 µM; under `CC(O)CO` (configuration not stated), greater than 46 µM. As for `CC(C)C(=O)Nc1ccc([N+](=O)[O-])c(C(F)(F)F)c1`, the IC50 was greater than 46 µM. As for `CC1(c2ccccc2)OC(C(=O)O)=CC1=O` (configuration not stated), the IC50 was greater than 46 µM. Under `O=C(O)[C@@H](S)[C@H](S)C(=O)O` stands greater than 46 µM; under `Cc1c(C(C)C)c(=O)n(-c2ccccc2)n1C`, greater than 46 µM. Molecule `Brc1c(NC2=NCCN2)ccc2nccnc12` returned an IC50 greater than 46 µM. For `C=CC(N)CCC(=O)O` (configuration not stated), the IC50 is greater than 46 µM. Regarding `O=[C@@](N\C(C([O-])=O)=C/CCCCSC[C@H](N)C(O)=O)[C@@H](C1)C1(C)C.[Na+]`, the IC50 was greater than 46 µM. As for `Cc1[nH]c(=O)c(C#N)cc1-c1ccc2nccn2c1.Cl`, the IC50 is greater than 46 µM. In turn, `NC(=O)C1c2ccccc2CCc2ccccc21` had an IC50 greater than 46 µM. `CCCCCCCCCCCCOS(=O)(=O)[O-].[Na+]` yielded an IC50 greater than 46 µM. Under `CC(C)NC[C@@H](O)COc1ccc(CC(N)=O)cc1` stands greater than 46 µM.

`NNC(=O)CP(=O)(c1ccccc1)c1ccccc1`: the IC50 was greater than 46 µM.

The molecule `O=c1[nH]c(=O)n([C@H]2C[C@H](O)[C@@H](CO)O2)cc1Br` had an IC50 greater than 46 µM.

For the molecule `CC(=O)OCC(=O)C1CCC2C3CCC4CC(O)CCC4(C)C3C(=O)CC12C` (configuration not stated), the IC50 is greater than 46 µM.

`CCCN(CCc1cccs1)[C@H]1CCc2c(O)cccc2C1` showed an IC50 greater than 46 µM. Molecule `O=c1[n-]c(=O)n(Cl)c(=O)n1Cl.[Na+]` had an IC50 greater than 46 µM.

For `CCCCCN(C)CCC(O)(P(=O)([O-])O)P(=O)(O)O.[Na+]`, the IC50 is greater than 46 µM. With `CN1C(C(=O)Nc2ccccn2)C(=O)c2sc(Cl)cc2S1(=O)=O` (configuration not stated), the IC50 was greater than 46 µM.

`O=C([O-])[C@H](O)[C@@H](O)[C@H](O)[C@H](O)CO.O=C([O-])[C@H](O)[C@@H](O)[C@H](O)[C@H](O)CO.[Ba+2]`: the IC50 was greater than 46 µM.

`CCCCCCCCCCCCCC(=O)OC(C)C` came in with an IC50 greater than 46 µM.

On to `N=C(N)NCc1cccc(I)c1.N=C(N)NCc1cccc(I)c1.O=S(=O)(O)O`, for which the IC50 was greater than 46 µM. For the molecule `CC(C)(C)C(=O)NCCCC(=O)O`, the IC50 is greater than 46 µM.

For the molecule `CN(C)CCCN1c2ccccc2Sc2ccc(C(F)(F)F)cc21.Cl`, the IC50 is greater than 46 µM. Take `CC(C)[N+](C)(CCC(C(N)=O)(c1ccccc1)c1ccccc1)C(C)C`: the IC50 is greater than 46 µM. To `Cc1nc(NS(=O)(=O)c2ccc(N)cc2)nc(C)c1Br` belongs greater than 46 µM.

Turning to `CCC1(c2ccccc2)C(=O)NCNC1=O`, the IC50 was greater than 46 µM. The molecule `O=c1oc2cc(O)ccc2s1` gave an IC50 greater than 46 µM. `NC(=O)CCCCC1CCSS1` (configuration not stated) had an IC50 greater than 46 µM. Consider `CC(C)N(CCC(C(N)=O)(c1ccccc1)c1ccccn1)C(C)C` (configuration not stated), for which the IC50 is greater than 46 µM. Consider `F[C@]1([C@](C[C@@H]3C)([H])[C@@]4([H])[C@]([C@@](CC4)(O)[C@@](C)=O)(C)C[C@@H]1O)[C@](C=C2)(C)C3=CC2=O`, for which the IC50 is greater than 46 µM.

As for `C=CCNC(N)=S`, the IC50 was greater than 46 µM. Under `CC(C)(CO)[C@@H](O)C(=O)NCCCO` stands greater than 46 µM; under `FCOC(C(F)(F)F)C(F)(F)F`, greater than 46 µM.
